Measurements published in US9924712B2, “Liquid concentrate formulation containing a pyripyropene insecticide II” (BASF SE, priority 2012, dated 2018).

Experiment: Dissolution and solvate precipitation of pyripyropene derivative I in propylene carbonate (Alkylene carbonate A)
Type: physicochemical

Appearance of solution on continued agitation (10 wt % and 20 wt % in propylene carbonate, after additional approximately 2 hours of agitation, precipitate crystalline by microscopy): started to turn cloudy | Time for complete dissolution (10 wt % and 20 wt % solutions in Alkylene carbonate A (propylene carbonate), with agitation, both cases): about 1 hour
SMILES: C[C@]1(COC(=O)C2CC2)[C@@H]2C[C@H](O)[C@@]3(C)Oc4cc(-c5cccnc5)oc(=O)c4[C@H](O)[C@@H]3[C@@]2(C)CC[C@@H]1OC(=O)C1CC1 [pyripyropene derivative I]
